Experimental data as given in patent US9580435B2, “Pyrrolo[2,3-D]pyrimidine derivatives as CB2 receptor agonists” (priority 2013, dated 2017).
Read-outs that look alike come from different tables or passages of the source.

Columns and labels:
[1] = molecular target: T1, human CB2 receptors (Homo sapiens, UniProt P34972); assay: functional cAMP assay, CHO cells expressing human CB2 receptors; assay type: cell-based
T1 construct: expressed in transfected cells; host or cells: CHO cells
Experimental: (§1) CHO cells expressing human CB1 or CB2 receptors are seeded 17-24 hours prior to the experiment 50.000 cells per well in a black 96 well plate with flat clear bottom (Corning Costar #3904) in DMEM (Invitrogen No. 31331), lx HT supplement, with 10% fetal calf serum and incubated at 5% CO2 and 37° C. in a humidified incubator. The growth medium was exchanged with Krebs Ringer Bicarbonate buffer with 1 mM IBMX and incubated at 30° C. for 30 min. Compounds were added to a final assay volume of 100 μl and incubated for 30 min at 30° C. Using the cAMP-Nano-TRF detection kit the assay (Roche Diagnostics) was stopped by the addition of 50 μl lysis reagent (Tris, NaCl, 1.5% Triton X100, 2.5% NP40, 10% NaN3) and 50 μl detection solutions (20 μM mAb Alexa700-cAMP 1:1, and 48 μM Ruthenium-2-AHA-cAMP) and shaken for 2 h at room temperature. The time-resolved energy transfer is measured by a TRF reader (Evotec Technologies GmbH), equipped with a ND:YAG laser as excitation source. The plate is measured twice with the excitation at 355 nm and at the emission with a delay of 100 ns and a gate of 100 ns, total exposure time 10 s at 730 (bandwidth 30 nm) or 645 nm (bandwidth 75 nm), respectively. The FRET signal is calculated as follows: FRET=T730-Alexa730-P(T645-B645) with P=Ru730-B730/Ru645-B645, where T730 is the test well measured at 730 nM, T645 is the test well measured at 645 nm, B730 and B645 are the buffer controls at 730 nm and 645 nm, respectively. cAMP content is determined from the function of a standard curve spanning from 10 μM to 0.13 nM cAMP.
(§2) EC50 values were determined using Activity Base analysis (ID Business Solution, Limited). The EC50 values for a wide range of cannabinoid agonists generated from this assay were in agreement with the values published in the scientific literature.

[2] = molecular target: T2, human CB1 receptors (Homo sapiens, UniProt P21554); assay: functional cAMP assay, CHO cells expressing human CB1 receptors; assay type: cell-based
T2 construct: expressed in transfected cells; host or cells: CHO cells
Experimental: as §1, §2

[3] = human EC50, functional cAMP assay, CHO cells expressing human CB2, read-out: EC50:CB2

T2 sequence (P21554 whole entry): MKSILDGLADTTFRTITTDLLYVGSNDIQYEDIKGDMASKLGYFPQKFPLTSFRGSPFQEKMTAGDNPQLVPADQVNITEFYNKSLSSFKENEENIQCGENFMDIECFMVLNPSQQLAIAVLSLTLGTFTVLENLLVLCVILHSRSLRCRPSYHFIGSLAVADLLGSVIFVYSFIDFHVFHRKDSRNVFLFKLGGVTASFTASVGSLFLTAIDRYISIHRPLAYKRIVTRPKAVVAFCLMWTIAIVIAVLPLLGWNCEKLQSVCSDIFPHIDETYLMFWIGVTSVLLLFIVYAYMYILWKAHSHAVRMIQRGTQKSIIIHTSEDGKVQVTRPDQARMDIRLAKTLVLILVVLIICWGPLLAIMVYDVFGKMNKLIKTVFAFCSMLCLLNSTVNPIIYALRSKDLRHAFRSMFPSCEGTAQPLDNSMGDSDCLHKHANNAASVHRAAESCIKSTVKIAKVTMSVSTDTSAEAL
T1 sequence (P34972 whole entry): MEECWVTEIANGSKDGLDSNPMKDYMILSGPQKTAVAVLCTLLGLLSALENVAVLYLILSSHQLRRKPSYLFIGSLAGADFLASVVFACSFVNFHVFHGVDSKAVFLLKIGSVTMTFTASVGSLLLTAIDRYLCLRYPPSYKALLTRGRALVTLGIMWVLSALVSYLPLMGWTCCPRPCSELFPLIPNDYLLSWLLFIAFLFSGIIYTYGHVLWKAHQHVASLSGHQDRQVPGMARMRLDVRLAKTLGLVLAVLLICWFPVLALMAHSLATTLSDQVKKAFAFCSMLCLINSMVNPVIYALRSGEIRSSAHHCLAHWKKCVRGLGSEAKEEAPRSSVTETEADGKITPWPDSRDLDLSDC

Question: What does the source list for `CC(C)(C)c1nc(N2CC3(COC3)C2)c2ccn(Cc3ncccc3Cl)c2n1` [Example 49, 6-[2-tert-butyl-7-[(3-chloropyridin-2-yl)methyl]pyrrolo[2,3-d]pyrimidin-4-yl]-2-oxa-6-azaspiro[3.3]heptane]?
Answer: EC50 [1]: 0.0107 µM; EC50 [2]: 0.307 µM

Question: With `CC(C)(C)c1nc(N2CCC(O)C2)c2ccn(Cc3ccccc3Cl)c2n1` (stereo not shown) [Example 24, 1-[2-tert-butyl-7-[(2-chlorophenyl)methyl]pyrrolo[2,3-d]pyrimidin-4-yl]pyrrolidin-3-ol] as the compound, how does the EC50 [1, 3] read?
Answer: 0.411 µM

Question: What about the EC50 [2] of the same compound?
Answer: > 10 µM

Question: Which EC50 [1, 3] does the source give for `Cc1noc(Cn2ccc3c(N4CCC(O)C4)nc(C(C)(C)C)nc32)n1` (stereo not shown) [Example 31, 1-[2-tert-butyl-7-[(3-methyl-1,2,4-oxadiazol-5-yl)methyl]pyrrolo[2,3-d]pyrimidin-4-yl]pyrrolidin-3-ol] here?
Answer: 0.316 µM

Question: And the EC50 [2]?
Answer: > 10 µM

Question: What does the source list for `CC(C)(C)c1nc(N2CCC(O)C2)c2ccn(Cc3ncccc3Cl)c2n1` (stereo not shown) [Example 30, 1-[2-tert-butyl-7-[(3-chloropyridin-2-yl)methyl]pyrrolo[2,3-d]pyrimidin-4-yl]pyrrolidin-3-ol]?
Answer: EC50 [1]: 0.0084 µM; EC50 [2]: > 10 µM

Question: `CC(C)(C)c1nc(N2CCC(F)(F)C2)c2ccn(Cc3ccc(F)cc3Cl)c2n1` [Example 2, 2-tert-butyl-7-[(2-chloro-4-fluorophenyl)methyl]-4-(3,3-difluoropyrrolidin-1-yl)pyrrolo[2,3-d]pyrimidine] was tested. Which EC50 [1] did it give?
Answer: 0.0265 µM

Question: What about the EC50 [2] of the same compound?
Answer: > 10 µM

Question: Which results are given for `CC(C)(C)c1nc(N2CCC(F)(F)C2)c2ccn(Cc3ccccc3C(F)(F)F)c2n1` [Example 4, 2-tert-butyl-4-(3,3-difluoropyrrolidin-1-yl)-7-[[2-(trifluoromethyl)phenyl]methyl]pyrrolo[2,3-d]pyrimidine]?
Answer: EC50 [1]: 0.0074 µM; EC50 [2]: > 10 µM

Question: What does the source list for `CC(C)(C)c1nc(N2CCC(F)(F)C2)c2ccn(Cc3cccc(Cl)c3Cl)c2n1` [Example 5, 2-tert-butyl-7-[(2,3-dichlorophenyl)methyl]-4-(3,3-difluoropyrrolidin-1-yl) pyrrolo[2,3-d]pyrimidine]?
Answer: EC50 [1]: 0.0125 µM; EC50 [2]: > 10 µM

Question: Which EC50 [1] does the source give for `CC(C)(C)c1nc(N2CC[C@H](O)C2)c2ccn(Cc3ncccc3Cl)c2n1` [Example 47, (3S)-1-[2-tert-butyl-7-[(3-chloropyridin-2-yl)methyl]pyrrolo[2,3-d]pyrimidin-4-yl]pyrrolidin-3-ol] here?
Answer: 0.0058 µM

Question: And the EC50 [2]?
Answer: > 10 µM

Question: For `Cc1noc(Cn2ccc3c(N4CCC(F)(F)C4)nc(C(C)(C)C)nc32)n1` [Example 8, 5-[[2-tert-butyl-4-(3,3-difluoropyrrolidin-1-yl)pyrrolo[2,3-d]pyrimidin-7-yl]methyl]-3-methyl-1,2,4-oxadiazole], which EC50 [1] is on record?
Answer: 0.0496 µM

Question: And the EC50 [2]?
Answer: > 10 µM

Question: With `CC(C)(C)c1nc(N2CCC(F)(F)C2)c2ccn(Cc3ccccc3S(C)(=O)=O)c2n1` [Example 3, 2-tert-butyl-4-(3,3-difluoropyrrolidin-1-yl)-7-[(2-methylsulfonylphenyl)methyl]pyrrolo[2,3-d]pyrimidine] as the compound, how does the EC50 [1] read?
Answer: 0.0116 µM

Question: And the EC50 [2]?
Answer: > 10 µM

Question: `Cn1nnnc1Cn1ccc2c(N3CC4(COC4)C3)nc(C(C)(C)C)nc21` [Example 50, 6-[2-tert-butyl-7-[(1-methyltetrazol-5-yl)methyl]pyrrolo[2,3-d]pyrimidin-4-yl]-2-oxa-6-azaspiro[3.3]heptane] was tested. Which EC50 [1, 3] did it give?
Answer: 0.531 µM

Question: What about the EC50 [2] of the same compound?
Answer: > 10 µM

Question: For `CC(C)(C)c1nc(N2CCC(F)(F)C2)c2ccn(Cc3ccccc3Cl)c2n1` [Example 1, 2-tert-butyl-7-[(2-chlorophenyl)methyl]-4-(3,3-difluoropyrrolidin-1-yl)pyrrolo[2,3-d]pyrimidine], which EC50 [1] is on record?
Answer: 0.0101 µM

Question: What about the EC50 [2] of the same compound?
Answer: > 10 µM

Question: Which EC50 [1] does the source give for `CC(C)(C)c1nc(N2CCC(O)C2)c2ccn(Cc3cccnc3Cl)c2n1` (stereo not shown) [Example 29, 1-[2-tert-butyl-7-[(2-chloropyridin-3-yl)methyl]pyrrolo[2,3-d]pyrimidin-4-yl]pyrrolidin-3-ol] here?
Answer: 0.0036 µM

Question: And the EC50 [2]?
Answer: > 10 µM

Question: How did the EC50 [1] turn out when `CC(C)(C)c1nc(N2CCC(O)C2)c2ccn(Cc3ccc(F)cc3Cl)c2n1` (stereo not shown) [Example 25, 1-[2-tert-butyl-7-[(2-chloro-4-fluorophenyl)methyl]pyrrolo[2,3-d]pyrimidin-4-yl]pyrrolidin-3-ol] was run?
Answer: 0.0102 µM

Question: And the EC50 [2]?
Answer: 0.895 µM

Question: Which results are given for `CC(C)(C)c1nc(N2CC[C@H](O)C2)c2ccn(Cc3ccccc3C(F)(F)F)c2n1` [Example 44, (3S)-1-[2-tert-butyl-7-[[2-(trifluoromethyl)phenyl]methyl]pyrrolo[2,3-d]pyrimidin-4-yl]pyrrolidin-3-ol]?
Answer: EC50 [1]: 0.0033 µM; EC50 [2]: > 10 µM

Question: What does the source list for `CC(C)(C)c1nc(N2CCC(F)(F)C2)c2ccn(Cc3cccnc3Cl)c2n1` [Example 6, 2-tert-butyl-7-[(2-chloropyridin-3-yl)methyl]-4-(3,3-difluoropyrrolidin-1-yl)pyrrolo[2,3-d]pyrimidine]?
Answer: EC50 [1]: 0.012 µM; EC50 [2]: > 10 µM

Question: For `Cc1noc(Cn2ccc3c(N4CC5(COC5)C4)nc(C(C)(C)C)nc32)n1` [Example 15, 6-[2-tert-butyl-7-[(3-methyl-1,2,4-oxadiazol-5-yl)methyl]pyrrolo[2,3-d]pyrimidin-4-yl]-2-oxa-6-azaspiro[3.3]heptane], which EC50 [1, 3] is on record?
Answer: 0.747 µM

Question: What about the EC50 [2] of the same compound?
Answer: > 10 µM

Question: For `Cc1nnc(Cn2ccc3c(N4CC5(COC5)C4)nc(C(C)(C)C)nc32)o1` [Example 23, 6-[2-tert-butyl-7-[(5-methyl-1,3,4-oxadiazol-2-yl)methyl]pyrrolo[2,3-d]pyrimidin-4-yl]-2-oxa-6-azaspiro[3.3]heptane], which EC50 [1, 3] is on record?
Answer: 0.468 µM

Question: And the EC50 [2]?
Answer: > 10 µM

Question: With `CC(C)(C)c1nc(N2CC[C@H](O)C2)c2ccn(Cc3ccccc3S(C)(=O)=O)c2n1` [Example 45, (3S)-1-[2-tert-butyl-7-[(2-methylsulfonylphenyl)methyl]pyrrolo[2,3-d]pyrimidin-4-yl]pyrrolidin-3-ol] as the compound, how does the EC50 [1] read?
Answer: 0.0042 µM

Question: What about the EC50 [2] of the same compound?
Answer: > 10 µM

Question: `CC(C)(C)c1nc(N2CC[C@H](O)C2)c2ccn(Cc3cccc(Cl)c3Cl)c2n1` [Example 42, (3S)-1-[2-tert-butyl-7-[(2,3-dichlorophenyl)methyl]pyrrolo[2,3-d]pyrimidin-4-yl]pyrrolidin-3-ol] was tested. Which EC50 [1] did it give?
Answer: 0.0035 µM

Question: What about the EC50 [2] of the same compound?
Answer: > 10 µM

Question: Which results are given for `CC(C)(C)c1nc(N2CC3(COC3)C2)c2ccn(Cc3cccc(Cl)c3Cl)c2n1` [Example 21, 6-[2-tert-butyl-7-[(2,3-dichlorophenyl)methyl]pyrrolo[2,3-d]pyrimidin-4-yl]-2-oxa-6-azaspiro[3.3]heptane]?
Answer: EC50 [1]: 0.0914 µM; EC50 [2]: > 10 µM

Question: Which EC50 [1] does the source give for `Cc1nnc(Cn2ccc3c(N4CCC(F)(F)C4)nc(C(C)(C)C)nc32)o1` [Example 10, 2-[[2-tert-butyl-4-(3,3-difluoropyrrolidin-1-yl)pyrrolo[2,3-d]pyrimidin-7-yl]methyl]-5-methyl-1,3,4-oxadiazole] here?
Answer: 0.0296 µM

Question: What about the EC50 [2] of the same compound?
Answer: > 10 µM

Question: What does the source list for `Cc1nonc1Cn1ccc2c(N3CC[C@H](O)C3)nc(C(C)(C)C)nc21` [Example 48, (3S)-1-[2-tert-butyl-7-[(4-methyl-1,2,5-oxadiazol-3-yl)methyl]pyrrolo[2,3-d]pyrimidin-4-yl]pyrrolidin-3-ol]?
Answer: EC50 [1]: 0.0085 µM; EC50 [2]: > 10 µM

Question: With `Cc1nonc1Cn1ccc2c(N3CCC(O)C3)nc(C(C)(C)C)nc21` (stereo not shown) [Example 32, 1-[2-tert-butyl-7-[(4-methyl-1,2,5-oxadiazol-3-yl)methyl]pyrrolo[2,3-d]pyrimidin-4-yl]pyrrolidin-3-ol] as the compound, how does the EC50 [1] read?
Answer: 0.0189 µM

Question: What about the EC50 [2] of the same compound?
Answer: > 10 µM

Question: What does the source list for `CC(=O)OC1CCN(c2nc(C(C)(C)C)nc3c2ccn3Cc2cccc(Cl)c2Cl)C1` (stereo not shown) [Example 36, [1-[2-tert-butyl-7-[(2,3-dichlorophenyl)methyl]pyrrolo[2,3-d]pyrimidin-4-yl]pyrrolidin-3-yl]acetate]?
Answer: EC50 [1]: 0.0853 µM; EC50 [2]: > 10 µM

Question: What does the source list for `CC(C)(C)c1nc(N2CCC(F)(F)C2)c2ccn(Cc3nnnn3C3CC3)c2n1` [Example 13, 2-tert-butyl-7-[(1-cyclopropyltetrazol-5-yl)methyl]-4-(3,3-difluoropyrrolidin-1-yl)pyrrolo[2,3-d]pyrimidine]?
Answer: EC50 [1]: 0.023 µM; EC50 [2]: > 10 µM

Question: Which EC50 [1] does the source give for `CC(C)(C)c1nc(N2CC[C@H](O)C2)c2ccn(Cc3ccc(F)cc3Cl)c2n1` [Example 43, (3S)-1-[2-tert-butyl-7-[(2-chloro-4-fluorophenyl)methyl]pyrrolo[2,3-d]pyrimidin-4-yl]pyrrolidin-3-ol] here?
Answer: 0.0063 µM

Question: And the EC50 [2]?
Answer: > 10 µM

Question: `CC(C)(C)c1nc(N2CC3(COC3)C2)c2ccn(Cc3ccc(F)cc3Cl)c2n1` [Example 18, 6-[2-tert-butyl-7-[(2-chloro-4-fluorophenyl)methyl]pyrrolo[2,3-d]pyrimidin-4-yl]-2-oxa-6-azaspiro[3.3]heptane] was tested. Which EC50 [1] did it give?
Answer: 0.0425 µM

Question: And the EC50 [2]?
Answer: > 10 µM

Question: How did the EC50 [1] turn out when `CC(C)(C)c1nc(N2CCC(O)C2)c2ccn(Cc3cccc(Cl)c3Cl)c2n1` (stereo not shown) [Example 28, 1-[2-tert-butyl-7-[(2,3-dichlorophenyl)methyl]pyrrolo[2,3-d]pyrimidin-4-yl]pyrrolidin-3-ol] was run?
Answer: 0.014 µM

Question: And the EC50 [2]?
Answer: > 10 µM
